Source: patent US20190047966A1, “NOVEL COMPOUND AND PHARMACOLOGICALLY ACCEPTABLE SALT THEREOF” (MEIJI SEIKA PHARMA CO., LTD., priority 2016, published 2019)
Structures can show the parent of a compound that is named as a salt.

Columns and labels:
[1] = biological target: T1, human histamine H4 receptor (Homo sapiens, UniProt Q9H3N8); assay: Evaluation of Human H4 Receptor Affinity ([3H]histamine binding); settings: inhibition constant Ki, CHO-K1 membrane preparation, read-out: Evaluation of H4 Receptor Affinity
T1 construct: purchased PerkinElmer Inc; host or cells: CHO-K1
Description: Test Example 2: Evaluation of Human H4 Receptor Affinity
Membrane preparation from recombinant CHO-K1 cell expressing the human histamine H4 receptor (PerkinElmer Inc.), radiolabeled ligand 8.2 nM [^3H]histamine (PerkinElmer Inc.), and compounds dissolved in DMSO were reacted at 25° C. for 90 minutes in a buffering solution containing 50 mM tris-hydrochloric acid, pH 7.4, and 1.25 mM EDTA on a 96 well plate, followed by filtration using a GF/B filter (PerkinElmer Inc.) pretreated with 0.3% polyethylenimine. The residue was washed four times with a buffering solution of 50 mM tris-hydrochloric acid, pH 7.4. Thereafter, a scintillation cocktail (MicroScint 20: PerkinElmer Inc.) was added to the GF/B filter, and the radioactivity of each well was measured using a liquid scintillation counter for 96-well (TopCount: PerkinElmer Inc.). The non-specific binding was evaluated in the presence of 1.0 μM histamine. The inhibition constant Ki was calculated from the 50% inhibitory concentration (IC50 value) obtained in each test and the Kd value (5.7 nM) unique to this assay system, according to the Cheng-Prusoff equation.

[2] = biological target: human histamine H1 receptor (Homo sapiens, UniProt P35367); assay: Evaluation of Human H1 Receptor Affinity ([3H]pyrilamine binding); set-up: purchased PerkinElmer Inc; host or cells: CHO-K1; settings: inhibition constant Ki, CHO-K1 membrane preparation
Description: Test Example 1: Evaluation of Human H1 Receptor Affinity
Membrane preparation from recombinant CHO-K1 cell expressing the human histamine H1 receptor (PerkinElmer Inc.), radiolabeled ligand 1.2 nM [^3H]pyrilamine (PerkinElmer Inc.), and test compounds dissolved in DMSO were reacted at 25° C. for 3 hours in a buffering solution containing 50 mM tris-hydrochloric acid, pH 7.4, and 5 mM magnesium chloride on a 96 well plate, followed by filtration using a GF/B filter (PerkinElmer Inc.) pretreated with 0.3% polyethylenimine. The residue was washed four times with a buffering solution of 50 mM tris-hydrochloric acid, pH 7.4. Thereafter, a scintillation cocktail (MicroScint 20: PerkinElmer Inc.) was added to the GF/B filter, and the radioactivity of each well was measured using a liquid scintillation counter for 96-well (TopCount: PerkinElmer Inc.). The non-specific binding was evaluated in the presence of 1.0 μM pyrilamine. The inhibition constant Ki was calculated from the 50% inhibitory concentration (IC50 value) obtained in each test and the Kd value (1.1 nM) unique to this assay system, according to the Cheng-Prusoff equation.

Sequence of human histamine H1 receptor (P35367 whole entry): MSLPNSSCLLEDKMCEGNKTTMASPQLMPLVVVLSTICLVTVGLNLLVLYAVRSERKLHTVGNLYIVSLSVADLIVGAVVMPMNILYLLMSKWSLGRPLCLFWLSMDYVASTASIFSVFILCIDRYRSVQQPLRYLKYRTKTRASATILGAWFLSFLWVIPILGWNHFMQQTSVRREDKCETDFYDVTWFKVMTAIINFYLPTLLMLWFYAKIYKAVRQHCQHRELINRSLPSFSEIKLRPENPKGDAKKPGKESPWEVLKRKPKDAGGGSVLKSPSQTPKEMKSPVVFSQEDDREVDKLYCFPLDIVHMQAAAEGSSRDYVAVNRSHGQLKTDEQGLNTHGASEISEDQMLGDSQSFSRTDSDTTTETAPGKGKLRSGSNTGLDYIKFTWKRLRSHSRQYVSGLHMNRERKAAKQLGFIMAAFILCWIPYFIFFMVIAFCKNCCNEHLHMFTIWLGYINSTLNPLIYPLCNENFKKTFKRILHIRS
T1 sequence (Q9H3N8 whole entry): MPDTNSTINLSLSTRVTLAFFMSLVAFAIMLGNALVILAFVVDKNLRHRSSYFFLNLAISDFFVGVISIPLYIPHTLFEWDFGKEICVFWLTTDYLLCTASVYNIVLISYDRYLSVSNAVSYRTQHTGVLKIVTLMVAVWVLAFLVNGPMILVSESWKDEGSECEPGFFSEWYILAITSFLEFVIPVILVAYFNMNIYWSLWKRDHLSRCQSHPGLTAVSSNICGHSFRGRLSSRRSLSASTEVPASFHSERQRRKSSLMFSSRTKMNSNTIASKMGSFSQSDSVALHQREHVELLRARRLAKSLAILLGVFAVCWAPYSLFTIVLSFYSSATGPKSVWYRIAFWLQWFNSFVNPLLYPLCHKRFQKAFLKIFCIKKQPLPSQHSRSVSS

Row | SMILES | Ki [1] | Ki [2]
1 | N#CC1(C(=O)O)CCC(COCCN2CCN(c3nc(N)nc4c3CCc3cc(OCc5ccc(Cl)cc5)ccc3-4)CC2)CC1 (stereo not drawn) [160(b), trans- or cis-4-((2-(4-(2-amino-8-((4-chlorobenzyl)oxy)-5,6-dihydrobenzo[h]quinazolin-4-yl)piperazin-1-yl)ethoxy)methyl)-1-cyanocyclohexane-1-carboxylic acid] | < 100 nM | < 100 nM
2 | CCOC(=O)C1CCC(O)(COCCN2CCN(c3nc(N)nc4c3CCc3cc(OCc5ccc(Cl)cc5)ccc3-4)CC2)CC1 (stereo not drawn) [166(a), ethyl cis- or trans-4-((2-(4-(2-amino-8-((4-chlorobenzyl)oxy)-5,6-dihydrobenzo[h]quinazolin-4-yl)piperazin-1-yl)ethoxy)methyl)-4-hydroxycyclohexane-1-carboxylate] | 100 to 500 nM | < 100 nM
3 | Nc1nc2c(c(N3CCN(CCOCC4(O)CCC(C(=O)O)CC4)CC3)n1)CCc1cc(OCc3ccc(Cl)cc3)ccc1-2 (stereo not drawn) [166(b), cis- or trans-4-((2-(4-(2-amino-8-((4-chlorobenzyl)oxy)-5,6-dihydrobenzo[h]quinazolin-4-yl)piperazin-1-yl)ethoxy)methyl)-4-hydroxycyclohexane-1-carboxylic acid] | 100 to 500 nM | < 100 nM
4 | Nc1nc2c(c(N3CCNCC3)n1)CCc1cc(OCc3ccc(Cl)cc3)ccc1-2 [Example 4, 8-((4-chlorobenzyl)oxy)-4-(piperazin-1-yl)-5,6-dihydrobenzo[h]quinazolin-2-amine] | < 100 nM | < 100 nM
5 | Nc1nc2c(c(N3CCNCC3)n1)CCc1cc(OCc3ccccc3)ccc1-2 [Example 5, 8-(benzyloxy)-4-(piperazin-1-yl)-5,6-dihydrobenzo[h]quinazolin-2-amine] | < 100 nM | < 100 nM
6 | Nc1nc2c(c(N3CCNCC3)n1)CCc1cc(OCc3ccc(OC(F)(F)F)cc3)ccc1-2 [Example 6, 4-(piperazin-1-yl)-8-((4-(trifluoromethoxy)benzyl)oxy)-5,6-dihydrobenzo[h]quinazolin-2-amine] | < 100 nM | < 100 nM
7 | Nc1nc2c(c(N3CCN(CCO)CC3)n1)CCc1cc(OCc3ccccc3)ccc1-2 [Example 7, 2-(4-(2-amino-8-(benzyloxy)-5,6-dihydrobenzo[h]quinazolin-4-yl)piperazin-1-yl)ethan-1-ol] | 100 to 500 nM | < 100 nM
8 | Nc1nc2c(c(N3CCN(CCOCCO)CC3)n1)CCc1cc(OCc3ccc(Cl)cc3)ccc1-2 [Example 8, 2-(2-(4-(2-amino-8-((4-chlorobenzyl)oxy)-5,6-dihydrobenzo[h]quinazolin-4-yl)piperazin-1-yl)ethoxy)ethan-1-ol] | < 100 nM | < 100 nM
9 | Nc1nc2c(c(N3CCN(CCOCCOCCO)CC3)n1)CCc1cc(OCc3ccc(Cl)cc3)ccc1-2 [Example 9, 2-(2-(2-(4-(2-amino-8-((4-chlorobenzyl)oxy)-5,6-dihydrobenzo[h]quinazolin-4-yl)piperazin-1-yl)ethoxy)ethoxy)ethan-1-ol] | < 100 nM | < 100 nM
10 | N#CCOCCOCCN1CCN(c2nc(N)nc3c2CCc2cc(OCc4ccc(Cl)cc4)ccc2-3)CC1 [Example 10, 2-(2-(2-(4-(2-amino-8-((4-chlorobenzyl)oxy)-5,6-dihydrobenzo[h]quinazolin-4-yl)piperazin-1-yl)ethoxy)ethoxy)acetonitrile] | < 100 nM | < 100 nM
11 | Nc1nc2c(c(N3CCN(CCO[C@H]4CC[C@@H](C(=O)O)CC4)CC3)n1)CCc1cc(OCc3ccc(Cl)cc3)ccc1-2 [Example 24, cis-4-(2-(4-(2-amino-8-((4-chlorobenzyl)oxy)-5,6-dihydrobenzo[h]quinazolin-4-yl)piperazin-1-yl)ethoxy)cyclohexane-1-carboxylic acid] | 100 to 500 nM | < 100 nM
12 | Nc1nc2c(c(N3CCN(CCOC[C@H]4CC[C@@H](C(=O)O)CC4)CC3)n1)CCc1cc(OCc3ccc(OC(F)(F)F)cc3)ccc1-2 [Example 27, cis-4-((2-(4-(2-amino-8-((4-(trifluoromethoxy)benzyl)oxy)-5,6-dihydrobenzo[h]quinazolin-4-yl)piperazin-1-yl)ethoxy)methyl)cyclohexane-1-carboxylic acid dihydrochloride] | < 100 nM | < 100 nM
13 | Nc1nc2c(c(N3CCN(CCO[C@H]4CC[C@H](C(=O)O)CC4)CC3)n1)CCc1cc(OCc3ccc(Cl)cc3)ccc1-2 [Example 28, trans-4-(2-(4-(2-amino-8-((4-chlorobenzyl)oxy)-5,6-dihydrobenzo[h]quinazolin-4-yl)piperazin-1-yl)ethoxy)cyclohexane-1-carboxylic acid] | < 100 nM | < 100 nM
14 | Nc1nc2c(c(N3CCN(CCO[C@H]4C[C@H](C(=O)O)C4)CC3)n1)CCc1cc(OCc3ccc(OC(F)(F)F)cc3)ccc1-2 [Example 30, trans-3-(2-(4-(2-amino-8-((4-(trifluoromethoxy)benzyl)oxy)-5,6-dihydrobenzo[h]quinazolin-4-yl)piperazin-1-yl)ethoxy)cyclobutane-1-carboxylic acid] | < 100 nM | < 100 nM
15 | CC1(C(=O)O)CC(OCCN2CCN(c3nc(N)nc4c3CCc3cc(OCc5ccc(OC(F)(F)F)cc5)ccc3-4)CC2)C1 (stereo not drawn) [Example 31, cis-3-(2-(4-(2-amino-8-((4-(trifluoromethoxy)benzyl)oxy)-5,6-dihydrobenzo[h]quinazolin-4-yl)piperazin-1-yl)ethoxy)-1-methylcyclobutane-1-carboxylic acid] | 100 to 500 nM | < 100 nM
16 | Nc1nc2c(c(N3CCN(CCO[C@H]4C[C@@H](C(N)=O)C4)CC3)n1)CCc1cc(OCc3ccc(OC(F)(F)F)cc3)ccc1-2 [Example 33, cis 3-(2-(4-(2-amino-8-((4-(trifluoromethoxy)benzyl)oxy)-5,6-dihydrobenzo[h]quinazolin-4-yl)piperazin-1-yl)ethoxy)cyclobutane-1-carboxamide] | < 100 nM | < 100 nM
17 | Nc1nc2c(c(N3CCN(CCO[C@H]4C[C@H](C(N)=O)C4)CC3)n1)CCc1cc(OCc3ccc(OC(F)(F)F)cc3)ccc1-2 [Example 34, trans-3-(2-(4-(2-amino-8-((4-(trifluoromethoxy)benzyl)oxy)-5,6-dihydrobenzo[h]quinazolin-4-yl)piperazin-1-yl)ethoxy)cyclobutane-1-carboxamide] | < 100 nM | < 100 nM
18 | CN1CCN(c2nc(N)nc3c2CCc2cc(NS(=O)(=O)CCCOc4ccccc4)ccc2-3)CC1 [Example 40, N-(2-amino-4-(4-methylpiperazin-1-yl)-5,6-dihydrobenzo[h]quinazolin-8-yl)-3-phenoxypropane-1-sulfonamide] | < 100 nM | < 100 nM
19 | CN1CCN(c2nc(N)nc3c2CCc2cc(NS(=O)(=O)c4ccccc4)ccc2-3)CC1 [Example 41, N-(2-amino-4-(4-methylpiperazin-1-yl)-5,6-dihydrobenzo[h]quinazolin-8-yl)benzenesulfonamide] | 100 to 500 nM | 100 to 500 nM
20 | CN1CCN(c2nc(N)nc3c2CCc2cc(NS(=O)(=O)c4cccc(Cl)c4)ccc2-3)CC1 [Example 43, N-(2-amino-4-(4-methylpiperazin-1-yl)-5,6-dihydrobenzo[h]quinazolin-8-yl)-3-chlorobenzenesulfonamide] | 100 to 500 nM | 100 to 500 nM
21 | CN1CCN(c2nc(N)nc3c2CCc2cc(NS(=O)(=O)c4ccc(Cl)s4)ccc2-3)CC1 [Example 44, N-(2-amino-4-(4-methylpiperazin-1-yl)-5,6-dihydrobenzo[h]quinazolin-8-yl)-5-chlorothiophene-2-sulfonamide] | 100 to 500 nM | 100 to 500 nM
